# Experimental data from publication PMC10931659, “Structural Characterization and Functional Analysis of Mevalonate Kinase from Tribolium castaneum (Red Flour Beetle)” (International Journal of Molecular Sciences, 2024).
# T1: TcMevK (Tribolium castaneum, UniProt D2A4R0)
# T1 construct: gene AUGUSTUS-3.0.2_15408; N-terminal His6 tag (pET28a-derived vector), expressed in E. coli BL21(DE3), Ni-chelating and Superdex 200 purified
# T1 sequence (D2A4R0 1-396): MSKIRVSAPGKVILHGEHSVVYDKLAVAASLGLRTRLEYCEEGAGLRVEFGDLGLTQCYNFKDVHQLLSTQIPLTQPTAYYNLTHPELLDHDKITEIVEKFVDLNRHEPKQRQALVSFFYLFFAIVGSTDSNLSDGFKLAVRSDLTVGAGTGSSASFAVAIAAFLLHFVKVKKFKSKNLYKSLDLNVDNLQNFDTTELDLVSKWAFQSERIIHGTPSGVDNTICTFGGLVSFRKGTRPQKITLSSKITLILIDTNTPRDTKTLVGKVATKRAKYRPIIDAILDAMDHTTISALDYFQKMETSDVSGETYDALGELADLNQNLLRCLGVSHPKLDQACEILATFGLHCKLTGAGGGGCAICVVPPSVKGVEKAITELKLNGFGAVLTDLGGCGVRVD
# T2: TcMevK (Tribolium castaneum, UniProt D2A4R0, D220A)
# T2 construct: gene AUGUSTUS-3.0.2_15408; N-terminal His6 tag (pET28a-derived vector), expressed in E. coli BL21(DE3), Ni-chelating and Superdex 200 purified
# T2 sequence (D2A4R0 1-396 D220A): T1 sequence (D2A4R0 1-396)
# T3: TcMevK (Tribolium castaneum, UniProt D2A4R0, S217A)
# T3 construct: gene AUGUSTUS-3.0.2_15408; N-terminal His6 tag (pET28a-derived vector), expressed in E. coli BL21(DE3), Ni-chelating and Superdex 200 purified
# T3 sequence (D2A4R0 1-396 S217A): T1 sequence (D2A4R0 1-396)
# T4: TcMevK (Tribolium castaneum, UniProt D2A4R0, K11A)
# T4 construct: gene AUGUSTUS-3.0.2_15408; N-terminal His6 tag (pET28a-derived vector), expressed in E. coli BL21(DE3), Ni-chelating and Superdex 200 purified
# T4 sequence (D2A4R0 1-396 K11A): T1 sequence (D2A4R0 1-396)
# T5: TcMevK (Tribolium castaneum, UniProt D2A4R0, V21A)
# T5 construct: gene AUGUSTUS-3.0.2_15408; N-terminal His6 tag (pET28a-derived vector), expressed in E. coli BL21(DE3), Ni-chelating and Superdex 200 purified
# T5 sequence (D2A4R0 1-396 V21A): T1 sequence (D2A4R0 1-396)
# T6: TcMevK (Tribolium castaneum, UniProt D2A4R0, K234A)
# T6 construct: gene AUGUSTUS-3.0.2_15408; N-terminal His6 tag (pET28a-derived vector), expressed in E. coli BL21(DE3), Ni-chelating and Superdex 200 purified
# T6 sequence (D2A4R0 1-396 K234A): T1 sequence (D2A4R0 1-396)
# T7: TcMevK (Tribolium castaneum, UniProt D2A4R0, V264A)
# T7 construct: gene AUGUSTUS-3.0.2_15408; N-terminal His6 tag (pET28a-derived vector), expressed in E. coli BL21(DE3), Ni-chelating and Superdex 200 purified
# T7 sequence (D2A4R0 1-396 V264A): T1 sequence (D2A4R0 1-396)
# B1: TcMevK (Tribolium castaneum) (protein)
# chain: T1 sequence (D2A4R0 1-396)
# notes: N-terminal His6 tag (pET28a-derived vector), expressed in E. coli BL21(DE3), Ni-chelating and Superdex 200 purified
# Experiments:
# TcMevK [1] = biological target: T1, TcMevK; assay: intrinsic fluorescence quenching, excitation […] nm; format: binding; conditions: read-out: KD Value for Mev
# TcMevK [2] = biological target: T2, TcMevK; assay: intrinsic fluorescence quenching, excitation […] nm; format: binding; conditions: read-out: KD Value for Mev
# TcMevK [3] = biological target: T3, TcMevK; assay: intrinsic fluorescence quenching, excitation […] nm; format: binding; conditions: read-out: KD Value for Mev
# TcMevK [4] = biological target: T4, TcMevK; assay: intrinsic fluorescence quenching, excitation […] nm; format: binding; conditions: read-out: KD Value for Mev
# TcMevK [5] = biological target: T5, TcMevK; assay: intrinsic fluorescence quenching, excitation […] nm; format: binding; conditions: read-out: KD Value for Mev
# TcMevK [6] = biological target: T6, TcMevK; assay: intrinsic fluorescence quenching, excitation […] nm; format: binding; conditions: read-out: KD Value for Mev
# TcMevK [7] = biological target: T7, TcMevK; assay: intrinsic fluorescence quenching, excitation […] nm; format: binding; conditions: read-out: KD Value for Mev
# purified protein = substrate: C[C@@](O)(CCO)CC(=O)O; assay: purified protein; format: biochemical, Tribolium castaneum; conditions: 5 mM ATP, 16 mM MgCl2, 75 mM KCl; Mev 0–500 μM; pH and temperature not stated for this assay
Molecule,Kd (TcMevK [1]) [µM],Kd (TcMevK [2]) [µM],Kd (TcMevK [3]) [µM],Kd (TcMevK [4]) [µM],Kd (TcMevK [5]) [µM],Kd (TcMevK [6]) [µM],Kd (TcMevK [7]) [µM],Km (purified protein) [µM]
C[C@@](O)(CCO)CC(=O)O [mevalonate],30 ± 0.93,47.5 ± 2.17,70.2 ± 1.06,75.8 ± 0.84,51.7 ± 2.16,89.5 ± 2.45,57.1 ± 1.83,
B1,,,,,,,,32.71 ± 1.09
